In ChEMBL document CHEMBL3046040, “Synthesis, cytostatic and anti-viral activity evaluation of the novel acyclic nucleoside analogues containing a sterically constrained (Z)-4-amino-2-butenyl moiety” (Med Chem Res, 2011):
Calls of active or inactive are those of the source. No cut-off for these calls is given here.

Key:
Influenza A virus H3N2 = experiment: Antiviral activity against Influenza A virus H3N2 infected MDCK cells assessed as inhibition of virus-induced cytopathic effect; assay type: functional, organism-based
Coxsackievirus B4 [1] = experiment: Antiviral activity against Human coxsackievirus B4 infected HeLa cells assessed as inhibition of virus-induced cytopathic effect; assay type: functional, organism-based
MIA PaCa-2 = experiment: Antiproliferative activity against Homo sapiens (human) MIAPaCa2 cells by MTT assay; assay type: functional, cell-based
MOLT-4 = experiment: Cytostatic activity against Homo sapiens (human) Molt4/C8 cells after 72 hr by Coulter counting analysis; assay type: functional, cell-based; conditions: MOLT-4, 72 h
[2] = test system: Human immunodeficiency virus 2; experiment: Antiviral activity against Human immunodeficiency virus type 2 (ISOLATE ROD) infected CEM cells assessed as inhibition of virus-induced giant cell formation after 4 days by microscopic analysis; assay type: functional, organism-based; conditions: Human immunodeficiency virus 2, ISOLATE ROD, CCRF-CEM, 96 h
[3] = test system: Vesicular stomatitis virus; experiment: Antiviral activity against Vesicular stomatitis virus infected HeLa cells assessed as inhibition of virus-induced cytopathic effect; assay type: functional, organism-based
Human alphaherpesvirus 2 = experiment: Antiviral activity against Human herpesvirus 2 strain G infected HEL cells assessed as inhibition of virus-induced cytopathic effect; assay type: functional, organism-based
Sindbis virus = experiment: Antiviral activity against Sindbis virus infected Vero cells assessed as inhibition of virus-induced cytopathic effect; assay type: functional, organism-based
Coxsackievirus B4 [4] = experiment: Antiviral activity against Human coxsackievirus B4 infected Vero cells assessed as inhibition of virus-induced cytopathic effect; assay type: functional, organism-based
Influenza B virus = experiment: Antiviral activity against Influenza B virus infected MDCK cells assessed as inhibition of virus-induced cytopathic effect; assay type: functional, organism-based
Influenza A virus = experiment: Antiviral activity against Unidentified Influenza A virus ([…]) infected MDCK cells assessed as inhibition of virus-induced cytopathic effect; assay type: functional, organism-based; conditions: Influenza A virus (H1N1)
Human alphaherpesvirus 1 = experiment: Antiviral activity against Human herpesvirus 1 strain KOS infected in HEL cells assessed as inhibition of virus-induced cytopathic effect; assay type: functional, organism-based
L1210 = experiment: Cytostatic activity against Mus musculus (mouse) L1210 cells after 48 hr by Coulter counting analysis; assay type: functional, cell-based; conditions: Mus musculus, L1210, 48 h
HeLa = experiment: Antiproliferative activity against Homo sapiens (human) HeLa cells by MTT assay; assay type: functional, cell-based
WI-38 = experiment: Antiproliferative activity against Homo sapiens (human) WI38 cells by MTT assay; assay type: cell-based
Reovirus sp. = experiment: Antiviral activity against Mammalian orthoreovirus 1 infected Vero cells assessed as inhibition of virus-induced cytopathic effect; assay type: functional, organism-based
MCF7 = experiment: Antiproliferative activity against Homo sapiens (human) MCF7 cells by MTT assay; assay type: functional, cell-based
[5] = biological target: Human immunodeficiency virus type 1 reverse transcriptase (Human immunodeficiency virus 1) (UniProt Q72547); experiment: Inhibition of Human immunodeficiency virus 1 recombinant reverse transcriptase at 500 uM
SW-620 = experiment: Antiproliferative activity against Homo sapiens (human) SW620 cells by MTT assay; assay type: functional, cell-based; conditions: Homo sapiens, SW-620
Punta Toro virus = experiment: Antiviral activity against Punta Toro virus infected Vero cells assessed as inhibition of virus-induced cytopathic effect; assay type: functional, organism-based
[6] = test system: Respiratory syncytial virus; experiment: Antiviral activity against Respiratory syncytial virus infected HeLa cells assessed as inhibition of virus-induced cytopathic effect; assay type: functional, organism-based
CCRF-CEM = experiment: Cytostatic activity against Homo sapiens (human) CEM cells after 72 hr by Coulter counting analysis; assay type: functional, cell-based
Human respirovirus 3 = experiment: Antiviral activity against Human parainfluenza virus 3 infected Vero cells assessed as inhibition of virus-induced cytopathic effect; assay type: functional, organism-based
[7] = test system: Human immunodeficiency virus 1; experiment: Antiviral activity against Human immunodeficiency virus 1 IIIB infected CEM cells assessed as inhibition of virus-induced giant cell formation after 4 days by microscopic analysis; assay type: functional, organism-based; conditions: CCRF-CEM, 96 h
HepG2 = experiment: Antiproliferative activity against Homo sapiens (human) HepG2 cells by MTT assay; assay type: functional, cell-based

## Cc1cn(C/C=C\CN)c(=O)nc1N
Influenza A virus H3N2
  Activity: inactive
Coxsackievirus B4 [1]
  Activity: inactive
MIA PaCa-2
  IC50: > 100 µM
MOLT-4
  IC50: 42 µM
[2]
  EC50: 38 µM
[3]
  Activity: inactive
Human alphaherpesvirus 2
  Activity: inactive
Sindbis virus
  Activity: inactive
Coxsackievirus B4 [4]
  Activity: inactive
Influenza B virus
  Activity: inactive
Influenza A virus
  Activity: inactive
Human alphaherpesvirus 1
  Activity: inactive
L1210
  IC50: 45 µM
HeLa
  IC50: > 100 µM
WI-38
  IC50: 63 µM
Reovirus sp.
  Activity: inactive
MCF7
  IC50: 67.5 µM
[5]
  inhibition: inactive
SW-620
  IC50: 69.2 µM
Punta Toro virus
  Activity: inactive
[6]
  Activity: inactive
CCRF-CEM
  IC50: 46 µM
Human respirovirus 3
  Activity: inactive
[7]
  EC50: 36 µM
HepG2
  IC50: > 100 µM

## NC/C=C\Cn1ccc(N)nc1=O
Influenza A virus H3N2
  Activity: inactive
Coxsackievirus B4 [1]
  Activity: inactive
MIA PaCa-2
  IC50: > 100 µM
MOLT-4
  IC50: > 500 µM
[2]
  EC50: 78 µM
[3]
  Activity: inactive
Human alphaherpesvirus 2
  Activity: inactive
Sindbis virus
  Activity: inactive
Coxsackievirus B4 [4]
  Activity: inactive
Influenza B virus
  Activity: inactive
Influenza A virus
  Activity: inactive
Human alphaherpesvirus 1
  Activity: inactive
L1210
  IC50: > 500 µM
HeLa
  IC50: > 100 µM
WI-38
  IC50: 85.2 µM
Reovirus sp.
  Activity: inactive
MCF7
  IC50: > 100 µM
[5]
  inhibition: inactive
SW-620
  IC50: 53.2 µM
Punta Toro virus
  Activity: inactive
[6]
  Activity: inactive
CCRF-CEM
  IC50: > 500 µM
Human respirovirus 3
  Activity: inactive
[7]
  EC50: 96 µM
HepG2
  IC50: > 100 µM

## Cc1cn(C/C=C\CN)c(=O)[nH]c1=O
Influenza A virus H3N2
  Activity: inactive
Coxsackievirus B4 [1]
  Activity: inactive
MIA PaCa-2
  IC50: 93.3 µM
MOLT-4
  IC50: 44 µM
[2]
  EC50: 41 µM
[3]
  Activity: inactive
Human alphaherpesvirus 2
  Activity: inactive
Sindbis virus
  Activity: inactive
Coxsackievirus B4 [4]
  Activity: inactive
Influenza B virus
  Activity: inactive
Influenza A virus
  Activity: inactive
Human alphaherpesvirus 1
  Activity: inactive
L1210
  IC50: 43 µM
HeLa
  IC50: 61.6 µM
WI-38
  IC50: 54.2 µM
Reovirus sp.
  Activity: inactive
MCF7
  IC50: 49.2 µM
[5]
  inhibition: inactive
SW-620
  IC50: 54.4 µM
Punta Toro virus
  Activity: inactive
[6]
  Activity: inactive
CCRF-CEM
  IC50: 51 µM
Human respirovirus 3
  Activity: inactive
[7]
  EC50: 29 µM
HepG2
  IC50: > 100 µM
